Results: US20190060257A1, “ANALGESIC COMPOUNDS” (ZENO ROYALTIES & MILESTONES, LLC, priority 2016, published 2019)

Test system: male ICR mice
Assay: Formalin Paw Test
Assay type: in vivo, mouse
Conditions: 30 mg/kg, intraperitoneal administration; for Early Phase: early/acute phase (0-10 minutes) after 2% formalin into hind paw; for Late Phase: late/tonic phase (10-35 minutes) after 2% formalin into hind paw
Description: One test compound or the vehicle was administered to each mouse in each test group (8 mice per group). Non-fasted male ICR mice weighing 23±3 g were used. Test compounds were administered at a concentration of 3 mg/kg, 10 mg/kg, 15 mg/kg, 30 mg/kg, 60 mg/kg, 100 mg/kg, 200 mg/kg or 300 mg/kg; morphine was administered at a concentration of 5 mg/kg; and acetaminophen was administered at a concentration of 200 mg/kg. The control group received the vehicle (5% DMSO/40% PEG400/20% HPbCD/Saline). After 30 or 60 minutes, a 2% formalin solution (0.02 mL) was injected into one hind paw (sub-plantar) of each mouse. Responses were measured every 5 minutes after the formalin injection for 35 minutes.
The results in Table A are for intraperitoneal administration. In Table A, ‘A’ designates <70 licks/sec, ‘B’ designates ≥70 licks/sec and <165 licks/sec, and ‘C’ designates ≥165 licks/sec.

SMILES: NC1CC(F)(F)C1 [Compound 2]
- Early Phase: B (‘B’ designates ≥70 licks/sec and <165 licks/sec)
- Late Phase: B (‘B’ designates ≥70 licks/sec and <165 licks/sec)

SMILES: NCC1CC(F)(F)C1 [Compound 6]
- Early Phase: B (‘B’ designates ≥70 licks/sec and <165 licks/sec)
- Late Phase: B (‘B’ designates ≥70 licks/sec and <165 licks/sec)

SMILES: NC1CCC(F)(F)C1 (centres unmarked) [Compound 8]
- Early Phase: B (‘B’ designates ≥70 licks/sec and <165 licks/sec)
- Late Phase: B (‘B’ designates ≥70 licks/sec and <165 licks/sec)

SMILES: NC1CCC(F)(F)CC1 [Compound 9]
- Early Phase: A (‘A’ designates <70 licks/sec)
- Late Phase: A (‘A’ designates <70 licks/sec)

SMILES: NC1CCCC(C(F)(F)F)C1 (centres unmarked) [Compound 10]
- Early Phase: A (‘A’ designates <70 licks/sec)
- Late Phase: A (‘A’ designates <70 licks/sec)

SMILES: NC1CCCCCC1 [Compound 11]
- Early Phase: A (‘A’ designates <70 licks/sec)
- Late Phase: C (‘C’ designates ≥165 licks/sec)

SMILES: NC1CC2(C1)CC(N)C2 (centres unmarked) [Compound 13]
- Early Phase: B (‘B’ designates ≥70 licks/sec and <165 licks/sec)
- Late Phase: B (‘B’ designates ≥70 licks/sec and <165 licks/sec)

SMILES: NC1CC2(C1)CC(O)C2 (centres unmarked) [Compound 14]
- Early Phase: B (‘B’ designates ≥70 licks/sec and <165 licks/sec)
- Late Phase: B (‘B’ designates ≥70 licks/sec and <165 licks/sec)

SMILES: NC12CCC(C(F)(F)F)(CC1)CC2 [Compound 18]
- Early Phase: B (‘B’ designates ≥70 licks/sec and <165 licks/sec)
- Late Phase: B (‘B’ designates ≥70 licks/sec and <165 licks/sec)

SMILES: CC12CC3CC(C)(C1)CC(N)(C3)C2 [Compound 19]
- Early Phase: A (‘A’ designates <70 licks/sec)
- Late Phase: A (‘A’ designates <70 licks/sec)

SMILES: NC12CC3CC(C1)CC(C(F)(F)F)(C3)C2 [Compound 20]
- Early Phase: A (‘A’ designates <70 licks/sec)
- Late Phase: A (‘A’ designates <70 licks/sec)

SMILES: N[C@H]1C[C@@H](O)C1 [cis-1]
- Early Phase: B (‘B’ designates ≥70 licks/sec and <165 licks/sec)
- Late Phase: C (‘C’ designates ≥165 licks/sec)

SMILES: N[C@H]1C[C@H](O)C1 [trans-1]
- Early Phase: B (‘B’ designates ≥70 licks/sec and <165 licks/sec)
- Late Phase: C (‘C’ designates ≥165 licks/sec)
